# Data published in patent publication US11034650B2, “Compounds useful for treating a Mannheimia haemolytica or Histophilus somni infection” (Intervet Inc., priority 2016, dated 2021).
# Assays:
# Format in all cases: cell-based
# [1] = test system: Mannheimia haemolytica MH 6357 (M7/2, reference strain, cattle infection strain); test: MIC, broth-microdilution (CLSI VET01-A4), strain MH 6357; details: Mannheimia haemolytica strain MH 6357, broth-microdilution; unit assumed
# Summary of the method: (§1)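 MIC recorded as the lowest drug level giving no growth visible to the naked eye, from two-fold serial dilutions. Interpretation followed VET01-S3.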
# [2] = test system: Mannheimia haemolytica MH 6374 (ATCC 33396, reference strain); test: MIC, broth-microdilution (CLSI VET01-A4), strain MH 6374; details: Mannheimia haemolytica strain MH 6374, broth-microdilution; unit assumed
# Summary of the method: as §1
# [3] = test system: Mannheimia haemolytica MH 10720 (154, BRD field isolate); test: MIC, broth-microdilution (CLSI VET01-A4), strain MH 10720; details: Mannheimia haemolytica strain MH 10720, broth-microdilution; unit assumed
# Summary of the method: as §1
# [4] = test system: Mannheimia haemolytica MH 12587 (1071, BRD field isolate, macrolide-resistance: erm+, E+); test: MIC, broth-microdilution (CLSI VET01-A4), strain MH 12587; details: Mannheimia haemolytica strain MH 12587, broth-microdilution; unit assumed
# Summary of the method: as §1
# [5] = test system: Mannheimia haemolytica MH 13065 (XB0446-6003.9, BRD field isolate); test: MIC, broth-microdilution (CLSI VET01-A4), strain MH 13065; details: Mannheimia haemolytica strain MH 13065, broth-microdilution; unit assumed
# Summary of the method: as §1
# [6] = test system: Mannheimia haemolytica MH 13093 (XB0472-6014.1, BRD field isolate); test: MIC, broth-microdilution (CLSI VET01-A4), strain MH 13093; details: Mannheimia haemolytica strain MH 13093, broth-microdilution; unit assumed
# Summary of the method: as §1
# [7] = test system: Pasteurella multocida PM 6267 (P 2225 (L386), reference strain, mouse infection strain); test: MIC, broth-microdilution (CLSI VET01-A4), strain PM 6267; details: Pasteurella multocida strain PM 6267, broth-microdilution; unit assumed
# Summary of the method: as §1
# [8] = test system: Pasteurella multocida PM 6391 (ATCC 43137, reference strain); test: MIC, broth-microdilution (CLSI VET01-A4), strain PM 6391; details: Pasteurella multocida strain PM 6391, broth-microdilution; unit assumed
# Protocol: For example, representative compounds were tested against ***, Mannheimia haemolytica and Pasteurella multocida, using the conventional broth-dilution assay.
# The Minimum inhibitory concentrations (MIC) of compounds according to the invention for a number of veterinary bacterial pathogens were determined by the broth-microdilution method according to CLSI document VET01-A4.
# Microdilution trays containing a doubling dilution series of the test compound were used for the tests. The MIC results were interpreted according to the CLSI documents VET01-S3. The lowest concentration of compound at which no visible growth (i.e. no turbidity) detected by the unaided eye was recorded as the MIC.
# [9] = test system: Pasteurella multocida PM 10775 (080130003051, BRD field isolate); test: MIC, broth-microdilution (CLSI VET01-A4), strain PM 10775; details: Pasteurella multocida strain PM 10775, broth-microdilution; unit assumed
# Summary of the method: as §1
# [10] = test system: Pasteurella multocida PM 12080 (IV102277-0093, BRD field isolate); test: MIC, broth-microdilution (CLSI VET01-A4), strain PM 12080; details: Pasteurella multocida strain PM 12080, broth-microdilution; unit assumed
# Summary of the method: as §1
MIC PM 6267 [7],MIC PM 6391 [8],MIC PM 10775 [9],MIC PM 12080 [10],Compound,MIC MH 6357 [1],MIC MH 6374 [2],MIC MH 10720 [3],MIC MH 12587 [4],MIC MH 13065 [5],MIC MH 13093 [6]
0.4 µg/mL,0.8 µg/mL,≤ 0.1 µg/mL,0.8 µg/mL,CC(C)(C)CNCc1ccc(C#Cc2ccc(C(=O)N[C@@H](CO)C(=O)NO)cc2)cc1 [Compound 136],3.1 µg/mL,12.5 µg/mL,1.6 µg/mL,25 µg/mL,12.5 µg/mL,25 µg/mL
3.1 µg/mL,12.5 µg/mL,0.4 µg/mL,3.1 µg/mL,CC[C@H](C)[C@H](NC(=O)c1ccc(C#Cc2cccc(CNC3CC3)c2)cc1)C(=O)NO [Compound 144],6.3 µg/mL,12.5 µg/mL,1.6 µg/mL,25 µg/mL,12.5 µg/mL,12.5 µg/mL
3.1 µg/mL,6.3 µg/mL,0.2 µg/mL,6.3 µg/mL,O=C(N[C@@H](CO)C(=O)NO)c1ccc(C#Cc2ccc(CN3CCCC3)cc2)cc1 [Compound 145],6.3 µg/mL,25 µg/mL,3.1 µg/mL,25 µg/mL,12.5 µg/mL,12.5 µg/mL
0.8 µg/mL,1.6 µg/mL,≤ 0.1 µg/mL,≤ 0.1 µg/mL,CN1CCN(Cc2ccc(C#Cc3ccc(C(=O)N[C@@H](CO)C(=O)NO)cc3)cc2)CC1 [Compound 146],6.3 µg/mL,25 µg/mL,1.6 µg/mL,25 µg/mL,12.5 µg/mL,25 µg/mL
0.4 µg/mL,1.6 µg/mL,≤ 0.1 µg/mL,1.6 µg/mL,O=C(N[C@@H](CO)C(=O)NO)c1ccc(C#Cc2ccc(CNC3CCC3)cc2)cc1 [Compound 147],3.1 µg/mL,6.3 µg/mL,3.1 µg/mL,6.3 µg/mL,6.3 µg/mL,6.3 µg/mL
0.8 µg/mL,1.6 µg/mL,≤ 0.1 µg/mL,1.6 µg/mL,O=C(N[C@@H](CO)C(=O)NO)c1ccc(C#Cc2ccc(CNC3CCCC3)cc2)cc1 [Compound 148],6.3 µg/mL,25 µg/mL,1.6 µg/mL,25 µg/mL,12.5 µg/mL,12.5 µg/mL
0.8 µg/mL,1.6 µg/mL,≤ 0.1 µg/mL,1.6 µg/mL,O=C(N[C@@H](CO)C(=O)NO)c1ccc(C#Cc2ccc(CNC3CCCCC3)cc2)cc1 [Compound 149],12.5 µg/mL,25 µg/mL,3.1 µg/mL,25 µg/mL,25 µg/mL,25 µg/mL
6.3 µg/mL,25 µg/mL,≤ 0.1 µg/mL,≤ 0.1 µg/mL,CNCc1ccc(C#Cc2ccc(C(=O)N[C@@H](CO)C(=O)NO)cc2)cc1 [Compound 150],6.3 µg/mL,25 µg/mL,3.1 µg/mL,25 µg/mL,12.5 µg/mL,25 µg/mL
3.1 µg/mL,12.5 µg/mL,≤ 0.1 µg/mL,6.3 µg/mL,CCNCc1ccc(C#Cc2ccc(C(=O)N[C@@H](CO)C(=O)NO)cc2)cc1 [Compound 151],6.3 µg/mL,25 µg/mL,3.1 µg/mL,25 µg/mL,12.5 µg/mL,25 µg/mL
1.6 µg/mL,6.3 µg/mL,0.2 µg/mL,3.1 µg/mL,CCCNCc1ccc(C#Cc2ccc(C(=O)N[C@@H](CO)C(=O)NO)cc2)cc1 [Compound 152],3.1 µg/mL,25 µg/mL,3.1 µg/mL,12.5 µg/mL,12.5 µg/mL,12.5 µg/mL
1.6 µg/mL,6.3 µg/mL,≤ 0.1 µg/mL,0.8 µg/mL,COCCCNCc1ccc(C#Cc2ccc(C(=O)N[C@@H](CO)C(=O)NO)cc2)cc1 [Compound 153],12.5 µg/mL,25 µg/mL,6.3 µg/mL,25 µg/mL,12.5 µg/mL,25 µg/mL
0.2 µg/mL,1.6 µg/mL,≤ 0.1 µg/mL,0.8 µg/mL,COCCN(C)Cc1ccc(C#Cc2ccc(C(=O)N[C@@H](CO)C(=O)NO)cc2)cc1 [Compound 154],3.1 µg/mL,12.5 µg/mL,1.6 µg/mL,12.5 µg/mL,6.3 µg/mL,6.3 µg/mL

# Second part, the molecule before the results:
Compound,MIC PM 6267 [7],MIC PM 6391 [8],MIC PM 10775 [9],MIC PM 12080 [10],MIC MH 6357 [1],MIC MH 6374 [2],MIC MH 10720 [3],MIC MH 12587 [4],MIC MH 13065 [5],MIC MH 13093 [6]
CC(C)([C@H](NC(=O)c1ccc(C#Cc2ccc(CNCc3ccccn3)cc2)cc1)C(=O)NO)S(C)(=O)=O [C.269],≤ 0.1 µg/mL,≤ 0.1 µg/mL,≤ 0.1 µg/mL,≤ 0.1 µg/mL,1.6 µg/mL,0.4 µg/mL,≤ 0.1 µg/mL,1.6 µg/mL,1.6 µg/mL,0.8 µg/mL
CC(C)([C@H](NC(=O)c1ccc(C#Cc2ccc(CNCc3ccco3)cc2)cc1)C(=O)NO)S(C)(=O)=O [C.270],≤ 0.1 µg/mL,≤ 0.1 µg/mL,≤ 0.1 µg/mL,≤ 0.1 µg/mL,0.8 µg/mL,0.2 µg/mL,≤ 0.1 µg/mL,0.8 µg/mL,0.2 µg/mL,0.4 µg/mL
CC(C)([C@H](NC(=O)c1ccc(C#Cc2ccc(CNCc3nccs3)cc2)cc1)C(=O)NO)S(C)(=O)=O [C.274],≤ 0.1 µg/mL,≤ 0.1 µg/mL,≤ 0.1 µg/mL,≤ 0.1 µg/mL,0.2 µg/mL,0.2 µg/mL,≤ 0.1 µg/mL,0.4 µg/mL,0.2 µg/mL,0.2 µg/mL
COCCNCc1ccc(C#Cc2ccc(C(=O)N[C@H](C(=O)NO)C(C)(C)O)cc2)s1 [C.292],1.6 µg/mL,0.8 µg/mL,≤ 0.1 µg/mL,0.4 µg/mL,0.4 µg/mL,0.8 µg/mL,≤ 0.1 µg/mL,1.6 µg/mL,0.8 µg/mL,1.6 µg/mL
CC(C)([C@H](NC(=O)c1ccc(C#Cc2ccc(CNC3CC3)s2)cc1)C(=O)NO)S(C)(=O)=O [C.311],0.4 µg/mL,≤ 0.1 µg/mL,≤ 0.1 µg/mL,≤ 0.1 µg/mL,0.2 µg/mL,≤ 0.1 µg/mL,≤ 0.1 µg/mL,0.4 µg/mL,≤ 0.1 µg/mL,0.4 µg/mL
COCCNCc1ccc(C#Cc2ccc(C(=O)N[C@H](C(=O)NO)C(C)(C)S(C)(=O)=O)cc2)s1 [C.313],0.2 µg/mL,≤ 0.1 µg/mL,≤ 0.1 µg/mL,≤ 0.1 µg/mL,0.4 µg/mL,1.6 µg/mL,≤ 0.1 µg/mL,1.6 µg/mL,0.4 µg/mL,0.8 µg/mL
CC(C)([C@H](NC(=O)c1ccc(C#Cc2ccc(CNCc3cccnc3)s2)cc1)C(=O)NO)S(C)(=O)=O [C.319],0.2 µg/mL,≤ 0.1 µg/mL,≤ 0.1 µg/mL,≤ 0.1 µg/mL,0.2 µg/mL,0.2 µg/mL,≤ 0.1 µg/mL,0.8 µg/mL,0.4 µg/mL,0.4 µg/mL
CC[C@H](C)[C@H](NC(=O)c1ccc(C#Cc2ccc(CNC(C)C)cc2)cc1)C(=O)NO [Compound 141],1.6 µg/mL,3.1 µg/mL,0.2 µg/mL,3.1 µg/mL,6.3 µg/mL,12.5 µg/mL,1.6 µg/mL,12.5 µg/mL,6.3 µg/mL,12.5 µg/mL
CC[C@H](C)[C@H](NC(=O)c1ccc(C#Cc2ccc(CN3CCS(=O)(=O)CC3)cc2)cc1)C(=O)NO [Compound 142],0.2 µg/mL,0.4 µg/mL,≤ 0.1 µg/mL,0.4 µg/mL,6.3 µg/mL,12.5 µg/mL,3.1 µg/mL,25 µg/mL,12.5 µg/mL,12.5 µg/mL
